From ChEMBL document CHEMBL4715717, “Analysis of the aplyronine A-induced protein-protein interaction between actin and tubulin by surface plasmon resonance” (Bioorg Med Chem, 2016) come the findings set out here.

The test system of one assay is HeLa S3. Put plainly: Cytotoxicity against human HeLa S3 cells assessed as reduction in cell viability measured after 96 hrs by MTT assay. Type of assay: functional, cell-based. Particulars: HeLa S3, 96 h.
The species named for assay [1] is Homo sapiens. Put plainly: Binding affinity to streptavidin immobilized actin (unknown origin) assessed as on rate constant by SPR analysis. Background: Surface plasmon resonance follows binding to a sensor surface in real time, without labels.
The nature of assay [2]: Binding affinity to streptavidin immobilized actin (unknown origin) assessed as off rate constant by SPR analysis. Details: species or system Homo sapiens.
Assay [3] is described as follows: Binding affinity to streptavidin immobilized actin (unknown origin) assessed as dissociation constant by SPR analysis. Also noted: species or system Homo sapiens.
Assay [4] has as its target Actin, alpha skeletal muscle (Oryctolagus cuniculus, UniProt P68135). Put plainly: Induction of rabbit skeletal muscle actin depolymerization measured after 120 mins by fluorescence assay.
For assay [5], the species on record is Homo sapiens. Put plainly: Inhibition of aplyronine A-actin complex-tubulin (unknown origin) protein-protein interaction at 1 equivalent by SPR analysis.
Assay [6] is filed under the species Homo sapiens. Put plainly: Induction of immobilized actin-tubulin (unknown origin) protein-protein interaction by SPR analysis.
The species named for assay [7] is Homo sapiens. Put plainly: Induction of microtubule (unknown origin) depolymerization pretreated with paclitaxel followed by compound treatment measured after 1 hr in presence of native and biotinylated tubulin and actin by ultracentrifugation.
The species named for assay [8] is Homo sapiens. Put plainly: Binding affinity to actin (unknown origin) assessed as 1:1:1 ratio of actin-compound-tubulin heterodimer complex formation by measuring peak time in presence of 9:1 ratio of native/biotinylated tubulin by gel permeation HPLC analysis.
Assay [9] is filed under the species Homo sapiens. Put plainly: Binding affinity to actin (unknown origin) assessed as 1:1:1 ratio of actin-compound-tubulin heterodimer complex formation by measuring molecular weight in presence of 9:1 ratio of native/biotinylated tubulin by gel permeation HPLC analysis.
For assay [10], the species on record is Homo sapiens. Put plainly: Binding affinity to actin (unknown origin) assessed as on rate constant for actin-compound-tubulin heterodimer complex.
The nature of assay [11]: Binding affinity to actin (unknown origin) assessed as off rate constant for actin-compound-tubulin heterodimer complex. Also noted: species or system Homo sapiens.
Assay [12] is described as follows: Binding affinity to actin (unknown origin) assessed as dissociation constant for actin-compound-tubulin heterodimer complex at 25 degreeC. Details: species or system Homo sapiens.
The species entered for assay [13] is Homo sapiens. Put plainly: Binding affinity to actin (unknown origin) assessed as dissociation constant for actin-compound-tubulin heterodimer complex at 8 degreeC.
The species named for assay [14] is Homo sapiens. Put plainly: Binding affinity to actin (unknown origin) assessed as thermal stability of actin-compound-tubulin heterodimer complex at 25 degreeC.
The species entered for assay [15] is Homo sapiens. Put plainly: Binding affinity to actin (unknown origin) assessed as thermal stability of actin-compound-immobilized tubulin heterodimer complex.
For assay [16], the species on record is Homo sapiens. Put plainly: Induction of aplyronine A-actin complex-tubulin (unknown origin) protein-protein interaction assessed as association of actin-aplyronine A-tubulin complex by SPR analysis.
Assay [17] is filed under the species Homo sapiens. Put plainly: Induction of aplyronine A-actin complex-tubulin (unknown origin) protein-protein interaction assessed as actin-aplyronine A-tubulin ternary complex formation by SPR analysis.

Activity calls are given as the source filed them. The calls are words filed in the database; no cut-off is given here.

On to `COCC(C(=O)O[C@@H]1C/C=C/C=C/C(=O)O[C@H]([C@@H](C)[C@@H](O)[C@@H](C)CC[C@@H](OC(=O)C(C)N(C)C)[C@H](C)[C@H](OC(C)=O)[C@H](C)C/C=N/NC(=O)CCOCCOCCOCCOCCNC(=O)CCCC[C@@H]2SC[C@@H]3NC(=O)N[C@@H]32)C/C=C/[C@H](OC)C[C@H](C)C/C=C(\C)[C@@H](OC)CC[C@@H](C)[C@@H](O)[C@@H]1C)N(C)C` (some centres not stated), for which the half-maximal inhibitory concentration (IC50) (usually the point on the concentration scale where inhibition reaches its midpoint) with HeLa S3 stood at 0.096 nM. In addition, the Ka in the assay filed under Homo sapiens [1] is 4.54 10^3/M/s. The Kd (usually the equilibrium constant for the complex coming apart) was 1.83 10^-2/s in [2] and 4020 nM in assay [3].
As to `CO[C@H]1CC[C@@H](C)[C@@H](O)[C@H](C)[C@H](O)C/C=C/C=C/C(=O)O[C@H]([C@@H](C)[C@@H](O)[C@@H](C)CC[C@@H](OC(=O)C(C)N(C)C)[C@H](C)[C@H](OC(C)=O)[C@H](C)C/C=N/NC(=O)CCOCCOCCOCCOCCNC(=O)CCCC[C@@H]2SC[C@@H]3NC(=O)N[C@@H]32)C/C=C/[C@H](OC)C[C@H](C)C/C=C/1C` (some centres not stated), the half-inhibitory concentration (IC50) in the assay with HeLa S3 worked out at 700 nM. In the assay filed under Homo sapiens [1], the Ka was 8.38 10^2/M/s. The Kd in assay [2] is 1.51 10^-2/s; in assay [3] it was 18000 nM.
In turn, `COC[C@@H](OC)C(=O)O[C@H](CC[C@H](C)[C@H](C[C@@H]1OC(=O)C[C@@H](O)C/C=C/C(=O)[C@H](C)[C@H](OC)c2coc(n2)-c2coc(n2)-c2coc(n2)/C=C/C[C@H](OC)[C@H]1C)OC)[C@H](C)[C@H](OC(C)=O)[C@H](C)/C=C/N(C)C=O` came in with a dissociation constant (Kd) in [4] of 13 nM. Further, the inhibition (as a rule, the share of the control response that was lost under treatment) in the assay listed under Homo sapiens [5] was found to be 100%.
Consider `COCC(C(=O)O[C@@H]1C/C=C/C=C/C(=O)O[C@H]([C@@H](C)[C@@H](O)[C@@H](C)CC[C@@H](OC(=O)C(C)N(C)C)[C@H](C)[C@H](OC(C)=O)[C@H](C)/C=C/N(C)C=O)C/C=C/[C@H](OC)C[C@H](C)C/C=C(\C)[C@@H](OC)CC[C@@H](C)[C@@H](O)[C@@H]1C)N(C)C` (some centres not stated) [APLYRONINE A], for which, in the assay with HeLa S3, the 50% inhibitory concentration (IC50) turned out to be 0.01 nM. Also, the dissociation constant (Kd) is 100 nM in assay [4], 8.82 10^-2/s in assay [11] and 1840 nM in assay [12]. For the same compound, the result in the assay listed under Homo sapiens [6], in the assay filed under Homo sapiens [14] and in the assay filed under Homo sapiens [15] was inactive. Besides, the inhibition in the assay filed under Homo sapiens [5] was determined as 100%. In addition, in the assay filed under Homo sapiens [7], the outcome was Active. Besides, the TIME in the assay filed under Homo sapiens [8] came out at 0.265 h. Also, in the assay listed under Homo sapiens [9], the Activity was 145 kDa. In addition, the Ka is 4.78 10^4/M/s in the assay listed under Homo sapiens [10] and 3 10^6/M in the assay filed under Homo sapiens [13].
In the case of `CO[C@H]1CC[C@@H](C)[C@@H](O)[C@H](C)[C@H](O)C/C=C/C=C/C(=O)O[C@H]([C@@H](C)[C@@H](O)[C@@H](C)CC[C@@H](OC(=O)C(C)N(C)C)[C@H](C)[C@H](OC(C)=O)[C@H](C)/C=C/N(C)C=O)C/C=C/[C@H](OC)C[C@H](C)C/C=C/1C` (some centres not stated) [APLYRONINE C], the half-inhibitory concentration (IC50) in the assay with HeLa S3 was determined as 17 nM. Besides, the inhibition in the assay listed under Homo sapiens [5] was 100%.
As for `C/C1=C/C(=O)O[C@@H]2C[C@@H](CC[C@H](C)/C=C\C=C\CC1)O[C@@](O)([C@@H]1CSC(=O)N1)C2`, the outcome in the assay filed under Homo sapiens [16] and in the assay listed under Homo sapiens [17] was Active.
